Reference: patent publication US9586994B2, “CD44V6-derived peptides for treating breast cancer” (KARLSRUHER INSTITUT FÜR TECHNOLOGIE, priority 2012, dated 2017)
No end group written: not given here. MeO‑PEG‑COOH = methoxy-PEG carboxylic acid, 750 or 2000 Da

Experiments:
L3.6pl cells [1] = assay: Human orthotopic pancreatic cancer model, L3.6pl cells in nude mice, treatment from day 7; type: in vivo, mouse; conditions: L3.6pl orthotopic model; 5mer instead of 14mer
Method: In the case of the human orthotopic model, L3.6pl pancreatic carcinoma cells (passage 24-26) were suspended in Hank's balanced salt solution (Invitrogen, Karlsruhe, Germany) after trypsinization. The cells were injected orthotopically in the pancreas of male nude mice as described (Bruns C J et al. (1999) Neoplasia 1(1):50-62). Two groups of 15 mice each were injected i.p. 7 days later with either the human v6 peptide respectively rat control peptide (20 μg). For all experiments described and depicted herein either the rat 14mer control peptide or the human 14mer peptide were used. All experiments were then repeated with the rat 5mer control peptide or the human 5mer peptide (N-R-W-H-E, SEQ ID NO: 2). […] The injection was repeated three times per week for 21 days. Two days after the last treatment the animals were killed.
7 μm thick paraffin sections were deparaffinized and rehydrated. For P-Met staining antigen unmasking was achieved by boiling the slides in 1 mM EDTA pH 8.0 followed by incubation for 15 minutes at a sub-boiling temperature, for CD31 staining the sections were treated with Proteinase K (8 μg/ml) for […] at 37° C. For immunofluorescence staining of P-Met, unspecific binding was blocked with 5% goat serum (DAKO, Glostrup, Denmark) (diluted in 1×PBS/0.3% Triton X-100) for 60 minutes. In the case of immunohistochemistry, endogenous peroxidases were at first blocked with 3% H2O2 in PBS followed by incubation with biotin blocking system (Dako, Glostrup, Denmark) and then unspecific binding was inhibited by incubation with 5% FCS in PBS was used for blocking. The sections were incubated with the P-Met antibody (D26, dilution 1:50 in 1×PBS/1% BSA/0.3% Triton X-100), Met antibody (C-28, dilution 1:50), GFP antibody (sc-101525, dilution 1:50) or CD31 antibody (5 μg/ml) over night or VFF18 (5 μg/ml) o/n at 4° C. After washing in PBS the sections were incubated with Alexa Fluor R 546 goat anti-rabbit (in case of immunofluorescence P-Met and Met staining, dilution 1:500) or a biotinylated secondary antibody (for immunohistochemical stainings rabbit anti-rat antibody for VFF18 and CD31, goat anti-rabbit for P-Met, cleaved Caspase-3 and cleaved Caspase-8 and rabbit anti-mouse for GFP, dilution 1:500) for 45 minutes. For DAB staining the sections were treated with a streptavidin-peroxidase conjugate (Dako, Glostrup, Denmark) and developed with DAB (3,3′-diaminobenzidine) substrate system (3,3′-diaminobenzidine; Biozol, Eching, Germany) For immunofluorescence DAPI was used for nuclear staining.
To test the effect of the peptide on tumor growth and metastasis formation the L3.6pl cells were orthotopically injected into the pancreas of immunosuppressed mice (NCI-nu). […] The primary tumor expresses a high amount of CD44v6 (FIG. 19B). […] Indeed, human HGF in a concentration of 3375 pg/ml was detected in the supernatant (see Material and Methods) after 5 days of culture (data not shown).

HT29 colon cancer cells = assay: Scatter assay, HGF-induced HT29 colon cancer cells; type: cell-based, human; conditions: HGF 10 ng/ml, pre-incubated with peptide
Method: A scatter assay was performed additionally. HT29 colon cancer cells were grown in medium containing 10% FCS. One day after seeding, the cells were starved. On the third day, the cells were induced with HGF (10 ng/ml) and pre-incubated with either no peptide, ctrl-peptides (SEQ ID NO: 15), non-pegylated v6-peptides (SEQ ID NO: 11) or the pegylated peptides, namely PEG-rat control peptide and PEG-rat CD44v6 peptide.

CD44v6 [2] = assay: HGF-induced activation of Met and ERK in L3.6pl cells (Western blot); type: cell-based, human
Method: (§1) Serum-starved cells (24 hours) were induced with the growth factor HGF (10 ng/mL) at 37° C. for 5 minutes. Where indicated, the cells were treated with peptides (100 ng/ml) prior to induction at 37° C. for 10 minutes (100 ng/mL CD44v6 peptide or control peptide). Following the induction with HGF, cells were washed with ice-cold phosphate-buffered saline (PBS). To detect activated Met and ERK, cells were lysed in sodium dodecyl sulfate (SDS)—sample buffer containing 100 mM dithiothreitol (DTT), boiled and subjected to western blot analysis using antibodies against phospho-Met and ERK. The loading controls were performed on the same blot after stripping (62.5 mM Tris, pH 6.8, 2% SDS, 0.8% DTT) by probing with the Met respectively Erk antibody. Blots were stained using the enhanced chemiluminescence system (Thermo Fisher Scientific, Schwerte, Germany). Bands in western blot analysis were quantified with the program Image J (National Institutes of Health).
To expand the studies to human pancreatic tumors, the highly metastatic human pancreatic carcinoma cells L3.6pl (Bruns, et al. Neoplasia (1999), 1(1):50-62) were investigated. These cells originate from the […] cells that have been passaged several times in the liver and the pancreas, a step that rendered them more and more metastatic. It was confirmed that Met is dependent on CD44v6 for its activation and signaling in these cells (FIG. 19A). The L3.6pl cells were treated with HGF in the presence or absence of a human v6 peptide of SEQ ID NO: 2 or SEQ ID NO:6 and Met activation and downstream signaling to ERK was measured. Phosphorylation of both Met and ERK was inhibited by the human v6 peptide. Treatment with a corresponding rat v6 peptide (ctrl peptide, SEQ ID NO: 10 or 11) had no influence on receptor activation and signal transduction (FIG. 19A).
The contribution of CD44v6 to Met signaling in the human epithelial pancreatic cancer cells L3.6pl (derived from Colo 357), the cervix carcinoma cells HeLa and the colon cancer cells HT29 were analysed using the CD44v6 peptide (v6 14mer; v6 5mer tested as well, data not shown).

BSp73ASs6 cells [3] = assay: Rat syngeneic model, subcutaneous BSp73ASs6 tumors, treatment from one week (metastasis formation); type: in vivo; conditions: rats, s.c. BSp73ASs6
Method: In the case of the rat syngeneic model, 1×10^6 pancreatic cells (BSp73AS and its transfectants) were subcutaneously injected into the right posterior flank of the animals. Tumors developed for four weeks. During this time period animals injected with BSp73ASs6 cells expressing Met-shRNA or control-shRNA received doxycycline in the drinking water. At the end of the experiment, primary tumors were isolated. Lungs and axillary lymph nodes were analyzed. The tissues were incubated for 24 h in a zinc-fixative (0.5 g calcium acetate, 5.0 g zinc acetate, 5.0 g zinc chloride, in 1 L 0.1 M Tris pH 7.4) and embedded in paraffin for further analysis. In case of peptide or antibody treatment tumors developed for one week before the first treatment. Where indicated, animals received 200 μg of peptide or antibody per injection three times per week for four weeks. Tumor growth was monitored weekly using a caliper Animals were killed at day 28 or 30 after start of the treatment.
For histomorphological analysis paraffin-embedded sections of lungs were stained with hematoxylin and eosin and periodic acid-Schiff (H&E or PAS). Serial sections of the whole tissue blocks were examined by analyzing slices every 20 μm; in each slice, the presence and the extension of the metastatic deposit was assessed, according to the procedure routinely used by pathologists to evaluate the presence of micrometastases.
Rat peptides had the sequences KEKWFENEWQGKNP (SEQ ID NO: 10) and NEWQG (SEQ ID NO: 11). BSp73ASs6 cells were subcutaneously injected into syngeneic rats and rat CD44v6 peptides of SEQ ID NO: 10 or SEQ ID NO: 11 (or mouse control peptides) or the CD44v6 antibody (or IgGs as a control) were injected intra-tumoral or intravenously three times a week. […] This is compatible with the fact that also BSp73AS cells or BSp73ASv1-10Δv6 cells can induce the formation of primary tumors similarly to the v6 transfectants.

CD44v6 [4] = assay: Activation assay with pegylated peptides: HGF-induced Met and ERK activation in BSp73ASs6 cells; type: cell-based, rat
Method: The PEG-control peptide and PEG-rat CD44v6 peptide were compared for their ability to block HGF induced activation of the receptor tyrosine kinase Met and ERK.
Rat pancreatic cancer cells BSp73ASs6 (also designated Ass6) were incubated for 10 min at 37° C. with either ctrl-peptides (SEQ ID NO: 15), non-pegylated v6-peptides (SEQ ID NO: 11) and increasing concentrations of the pegylated peptides, namely PEG-rat control peptide and PEG-rat CD44v6 peptide, before induction with HGF (10 ng/ml; 5 min at 37° C.).
Activation of ERK and Met was determined by standard SDS and Western Blotting techniques using a phospho-Met and phospho-Erk specific antibody (phospho-Met clone D16 cell signaling, phospho-Erk p42/44 cell signaling)

L3.6pl cells [5] = assay: Staining of fixed L3.6pl cells with DY681-labeled peptides (confocal microscopy); type: binding, human; conditions: DY681-labeled peptide
Method: (§2) ASs6 or L3.6pl cells were seeded at 5,000 cells/well of a Lab-TekR Chamber Slide™ (Nunc, Napierville, Ill., USA). On the following day the cells were washed with cold PBS and fixed with 4% Formalin for 30 min at RT. Unspecific binding was blocked with 1% BSA in PBS for 1 hour at RT. The cells were incubated for 1 hour with the DY681-labeled peptides. After three washing steps with PBS the cover slips were mounted with Fluorescence Mounting Medium (Dako, Glostrup, Denmark) and the immunofluorescence was measured by a laser scanning confocal microscope Leica TCS2 SP2 (Exton, Pa., USA) and processed using Leica confocal software. A 20× objective was used for imaging.

CD44v6 [6] = assay: HGF-induced Met/Erk activation in BSp73ASs6 cells with DY681-labeled peptides; type: cell-based, rat; conditions: FIG. 18A right side, activation of Erk determined
Method: as §1
In order to test the specificity of the binding of CD44v6 peptides to the tumor site and to the metastases and to estimate the binding kinetics in vivo, near infrared fluorescence (NIRF) imaging with the Optix MX2 was. For this purpose two CD44v6 peptides were labeled with the fluorophore DY681: a rat specific one, rv6 pep Dy681 and a mouse specific one, mv6 pep Dy681, as a control.

BSp73ASs6 tumors = conditions: rat
From the text: To avoid autofluorescence of fur, rats were shaved around the tumor prior to imaging. Subsequently, animals were anesthetized using 2% isoflurane and gently fixed on the devices' heated plate for the entire time of data acquisition. To reduce fluorescence background, rats were fed with chlorophyll-reduced food (Provimi Kliba AG, Kaiseraugst, Switzerland) for one week prior NIRF imaging. All in vivo analyses were preceded by native scans of animals without any injection of the fluorescent probe. For in vivo analysis, rats were injected with 200 μg DY681-labeled rat v6 11 mer peptide or the human v6 11 mer peptide via the tail vein. Controls were injected with the equal amount of DY681-labeled mouse v6 11mer peptide. […] All peptides were labeled with the fluorescent dye DY681. Data were acquired at the indicated time after injection of the peptides. […]
DY681 fluorescence was measured using excitation at 670 nm in combination with a 700 nm long-pass emission filter. […] Data sets were analyzed with OptiView (ART).
For in vivo experiments, BSp73ASs6 cells were injected subcutaneously into syngeneic rats. […] The accumulation of the fluorescence was measured in the tumor region by Optix MX2 at the indicated time points. […] Then, in vivo binding kinetics of the Dy681-labeled v6 peptides to the subcutaneous tumors were determined. […]

BSp73ASs6 cells [7] = assay: Staining of fixed BSp73ASs6 cells with DY681-labeled peptides (confocal microscopy); type: binding, rat; conditions: 1 hour with DY681-labeled peptide
Method: as §2

L3.6pl tumors = assay: In vivo and ex vivo imaging (Pearl Imager) of mice with L3.6pl tumors; parameters: species or system mouse; conditions: 24 h after injection
Method: In vivo imaging of the mice with the L3.6pl tumors was performed using the Pearl™ Imager (LI-COR Biosciences, Bad Homburg, Germany) The system uses two lasers (685 and 785 nm) for excitation and a charge-coupled device detector for signal detection. The laser excitation enables a deep tissue penetration. With the near-infrared detection a high sensitivity due to the reduced tissue auto-fluorescence is achieved. In order to standardize the images we made use of the Pearl Cam Software. The animals were fed with chlorophyll-reduced food to reduce the fluorescence background one week before imaging (Regime 210, safe-diets, Augy, France). Prior to imaging the mice were anesthetized with 2.0% isoflurane. Animals were placed on the heated plate of the imager and continuous delivery of isoflurane was achieved through a nose cone in the imaging drawer. Images were captured at white light, 700 and 800 nm Animals were imaged prior to i.v. peptide injection and 24 h after injection with either DY681-labeled human v6 peptide or DY681-labeled rat v6 peptide as control Immediately after each imaging session animals were killed, tumor, liver and spleen isolated and scanned ex vivo at white light, 700 and 800 nm.
Then, the specificity of binding of the human CD44v6 peptide to the tumor in vivo was examined using the small animal imaging system Pearl Impulse. […]

[8] = peptide before induction with 10 ng/ml HGF
[9] = peptide 10 min 37° C., HGF 10 ng/ml 5 min

With “NEWQG [SEQ ID NO: 11, rat CD44v6 5mer peptide]” the “Outcome of all experiments repeated with 5mer peptides, compared with 14mer” value (L3.6pl cells [1]) was “same results as for the 14mer peptides”, the “Dissociation and migration of cells away from cell cluster (scatter)” value (HT29 colon cancer cells) was “lead to dissociation and migration of cells away from these cell cluster” and the “HGF-induced phosphorylation/activation of ERK” value (CD44v6 [2]; [8]) was “no influence”. For the same substance, the “HGF-induced phosphorylation/activation of Met” value (CD44v6 [2]; [8]) was “no influence”, the “Metastasis (axillary lymph nodes and lungs)” value (BSp73ASs6 cells [3]; 200 μg per injection i.t. or i.v., three times a week, four weeks, start after one week) was “completely inhibited metastasis” and the “Metastasis and micro-metastasis in lung sections (PAS and H&E histology)” value (BSp73ASs6 cells [3]; 200 μg three times a week) was “no metastasis nor micro-metastasis could be detected”. For the same substance, the “Outgrowth of primary tumors” value (BSp73ASs6 cells [3]; treatment for 28 days) was “not influenced”.

In the case of “PEG-NEWQG ({MeO‑PEG‑COOH}-NEWQG; also: PEG 750 or 2000 Da) [PEG-rat CD44v6 peptide, rat 5mer NEWQG coupled to MeO-PEG-COOH (750 Da and 2000 Da)]”, the “Efficiency of inhibition of ERK, pegylated vs. non-pegylated peptides” value (CD44v6 [4]; HGF 10 ng/ml) is reported as “even more efficient”, the “HGF dependent activation of ERK” value (CD44v6 [4]; [9]) is reported as “efficient in inhibiting” and the “HGF dependent activation of Met” value (CD44v6 [4]; [9]) is reported as “efficient in inhibiting”. The “Dissociation and migration of cells away from cell cluster (scatter)” value (HT29 colon cancer cells) was “lead to dissociation and migration of cells away from these cell cluster”.

With “WFENEWQGKNP (also: DY681 fluorescent dye label) [rv6 pep Dy681, rat 11mer labeled with the fluorescent dye DY681]” the “Binding to L3.6pl cells in cell culture” value (L3.6pl cells [5]) was “not”, the “Met activation (HGF-induced) with DY681-labeled peptides” value (CD44v6 [6]) was “inhibited Met activation” and the “Ex vivo fluorescence in excised tumors and lungs” value (BSp73ASs6 tumors) was “Fluorescence intensities could only be detected in tumors and in specific areas of the lungs”. For the same substance, the “Binding to BSp73ASs6 cells in tissue culture” value (BSp73ASs6 cells [7]) was “bound to BSp73ASs6 cells”.

“WFGNRWHEGYR (also: DY681 fluorescent dye label) [labeled human v6 peptide, human 11mer labeled with the fluorescent dye DY681]” was tested, and the “Binding to L3.6pl cells in cell culture” value (L3.6pl cells [5]) was “bound to these cells in cell culture”, the “Met activation (HGF-induced) with DY681-labeled peptides” value (CD44v6 [2]; FIG. 20A right side, activation of Erk determined) was “inhibited Met activation” and the “Ex vivo fluorescence of isolated organs (tumor, liver, spleen)” value (L3.6pl tumors; mice with L3.6pl tumors) was “binding not only to primary tumors but also to areas of the liver”. For the same substance, the “Accumulation of fluorescence in the tumor in vivo” value (L3.6pl tumors; mice with orthotopic L3.6pl tumors, 20 μg i.v.) was “accumulated specifically in the tumor”.
